Among the data in US20170050957A1, “4-AMINO-6-(HETEROCYCLIC)PICOLINATES AND 6-AMINO-2-(HETEROCYCLIC)PYRIMIDINE-4-CARBOXYLATES AND THEIR USE AS HERBICIDES” (Dow AgroSciences LLC, priority 2013, published 2017) are pest or weed control and melting point values, retold here.

The subject of series [1] is Key Broadleaf Weed and Crop Species. As to the kind of experiment: Post-emergent Test II herbicidal activity (Table 15). The class given is in vivo. Particulars: post-emergence, 336 h, 14 d; for pest or weed control at 35 g/ha: 35 g ai/ha; for pest or weed control at 70 g/ha: 70 g ai/ha; for pest or weed control at 140 g/ha: 140 g ai/ha. The method, then: (§1) Post-emergent Test II: Seeds or nutlets of the desired test plant species were planted in Sun Gro Metro-Mix® 360 planting mixture, which typically has a pH of 6.0 to 6.8 and an organic matter content of about 30 percent, in plastic pots with a surface area of 64 square centimeters. When required to ensure good germination and healthy plants, a fungicide treatment and/or other chemical or physical treatment was applied. The plants were grown for 7-21 d in a greenhouse with an approximate 15 h photoperiod which was maintained at about 23-29° C. during the day and 22-28° C. during the night. Nutrients and water were added on a regular basis and supplemental lighting was provided with overhead metal halide 1000-Watt lamps as necessary. The plants were employed for testing when they reached the first or second true leaf stage.
(§2) A weighed amount, determined by the highest rate to be tested, of each test compound was placed in a 25 mL glass vial and was dissolved in 4 mL of a 97:3 v/v mixture of acetone and DMSO to obtain concentrated stock solutions. […] The concentrated stock solutions obtained were diluted with 20 mL of an aqueous mixture containing acetone, water, isopropyl alcohol, DMSO, Atplus 411F crop oil concentrate, and Triton® X-155 surfactant in a 48.5:39:10:1.5:1.0:0.02 v/v ratio to obtain spray solutions containing the highest application rates. Additional application rates were obtained by serial dilution of 12 mL of the high rate solution into a solution containing 2 mL of 97:3 v/v mixture of acetone and DMSO and 10 mL of an aqueous mixture containing acetone, water, isopropyl alcohol, DMSO, Atplus 411F crop oil concentrate, and Triton X-155 surfactant in a 48.5:39:10:1.5:1.0:0.02 v/v ratio to obtain 1/2×, 1/4×, 1/8× and 1/16× rates of the high rate. Compound requirements are based upon a 12 mL application volume at a rate of 187 liters per hectare (L/ha). Formulated compounds were applied to the plant material with an overhead Mandel track sprayer equipped with 8002E nozzles calibrated to deliver 187 L/ha over an application area of 0.503 square meters at a spray height of 18 inches (43 cm) above the average plant canopy height. Control plants were sprayed in the same manner with the solvent blank.
(§3) The treated plants and control plants were placed in a greenhouse as described above and watered by subirrigation to prevent wash-off of the test compounds. After 14 d, the condition of the test plants as compared with that of the untreated plants was determined visually and scored on a scale of 0 to 100 percent where 0 corresponds to no injury and 100 corresponds to complete kill.

The test system of series [2] is Key Grass and Sedge Weeds as well as Grass Crops. As to the kind of experiment: Post-emergent Test II herbicidal activity (Table 16). Format: in vivo. Conditions: post-emergence, 336 h; for pest or weed control at 35 g/ha: 35 g ai/ha; for pest or weed control at 70 g/ha: 70 g ai/ha; for pest or weed control at 140 g/ha: 140 g ai/ha. Here is the method: as §1, §2, §3

The mark [3] stands for this setting: Abutilon theophrasti, velvetleaf (Abutilon theophrasti), read-out: Visual Growth Reduction (%) 14 Days After Application, ABUTH.
[4] abbreviates: Amaranthus retroflexus, redroot pigweed (Amaranthus retroflexus), read-out: Visual Growth Reduction (%) 14 Days After Application, AMARE.
The mark [5] stands for this setting: Brassica napus, oilseed rape, canola (Brassica napus), read-out: Visual Growth Reduction (%) 14 Days After Application, BRSNN.
Setting [6] is: Chenopodium album, lambsquarters (Chenopodium album), read-out: Visual Growth Reduction (%) 14 Days After Application, CHEAL.
Setting [7] is: Euphorbia heterophylla, wild poinsettia (Euphorbia heterophylla), read-out: Visual Growth Reduction (%) 14 Days After Application, EPHHL.
Where [8] appears, read: Helianthus annuus, sunflower (Helianthus annuus), read-out: Visual Growth Reduction (%) 14 Days After Application, HELAN.
[9] abbreviates: Cyperus esculentus, yellow nutsedge (Cyperus esculentus), 14 d, read-out: Visual Growth Reduction (%) 14 Days After Application, CYPES.
[10] abbreviates: Echinochloa crus-galli, barnyardgrass (Echinochloa crus-galli), 14 d, read-out: Visual Growth Reduction (%) 14 Days After Application, ECHCG.
[11] abbreviates: Oryza sativa, rice (Oryza sativa), 14 d, read-out: Visual Growth Reduction (%) 14 Days After Application, ORYSA.
[12] abbreviates: Setaria faberi, giant foxtail (Setaria faberi), 14 d, read-out: Visual Growth Reduction (%) 14 Days After Application, SETFA.
Where [13] appears, read: Triticum aestivum, wheat, spring (Triticum aestivum), 14 d, read-out: Visual Growth Reduction (%) 14 Days After Application, TRZAS.
Setting [14] is: Zea mays, maize, corn (Zea mays), 14 d, read-out: Visual Growth Reduction (%) 14 Days After Application, ZEAMX.

Where two headings read alike, the source gives them in different places.

In general, melting point refers to the temperature of the solid-liquid transition.

For the compound `C=Cc1c(N)nc(-c2ccc3cc[nH]c3c2F)nc1C(=O)O` [Compound 1.39], the melting point fell in the range of 209 to 211 °C. For the same compound, in series [1] (setting [3]), the pest or weed control at 35 g/ha lay within 0 to 29% and the pest or weed control at 70 g/ha fell in the range of 0 to 29%. Besides, in series [1] (setting [4]), the pest or weed control at 35 g/ha was in the range of 95 to 100% and the pest or weed control at 70 g/ha lay in the range of 95 to 100%. Moreover, in series [1] (setting [5]), the pest or weed control at 35 g/ha lay within 75 to 84% and the pest or weed control at 70 g/ha was in the range of 85 to 94%. In series [1] (setting [6]), the pest or weed control at 35 g/ha lay within 95 to 100% and the pest or weed control at 70 g/ha fell in the range of 75 to 84%. In series [1] (setting [7]), the pest or weed control at 35 g/ha fell in the range of 85 to 94% and the pest or weed control at 70 g/ha is 75 to 84%. In addition, in series [1] (setting [8]), the pest or weed control at 35 g/ha is 0 to 29% and the pest or weed control at 70 g/ha lay within 0 to 29%. Also, in series [2] (setting [9]), the pest or weed control at 35 g/ha is 0 to 29% and the pest or weed control at 70 g/ha is 0 to 29%. Further, in series [2] (setting [10]), the pest or weed control at 35 g/ha lay in the range of 0 to 29% and the pest or weed control at 70 g/ha lay in the range of 0 to 29%. For the same compound, in series [2] (setting [11]), the pest or weed control at 35 g/ha was in the range of 0 to 29% and the pest or weed control at 70 g/ha fell in the range of 0 to 29%. Also, in series [2] (setting [12]), the pest or weed control at 35 g/ha lay within 0 to 29% and the pest or weed control at 70 g/ha fell in the range of 0 to 29%. In series [2] (setting [13]), the pest or weed control at 35 g/ha fell in the range of 0 to 29% and the pest or weed control at 70 g/ha was in the range of 0 to 29%. In series [2] (setting [14]), the pest or weed control at 35 g/ha fell in the range of 0 to 29% and the pest or weed control at 70 g/ha was 0 to 29%.
Regarding `Nc1c(F)c(-c2cccc3occc23)nc(C(=O)O)c1Cl` [Compound 2.17], the melting point fell in the range of 170 to 173 °C. In series [1] (setting [3]), the pest or weed control at 140 g/ha lay within 75 to 84%. Moreover, in series [1] (setting [4]), the pest or weed control at 140 g/ha was in the range of 95 to 100%. Also, the pest or weed control at 140 g/ha in series [1] (setting [5]) was 75 to 84%. In addition, the pest or weed control at 140 g/ha in series [1] (setting [6]) lay in the range of 95 to 100%. The pest or weed control at 140 g/ha in series [1] (setting [7]) lay within 95 to 100%. Moreover, the pest or weed control at 140 g/ha in series [1] (setting [8]) fell in the range of 85 to 94%. Moreover, the pest or weed control at 140 g/ha in series [2] (setting [9]) lay within 95 to 100%. Moreover, the pest or weed control at 140 g/ha in series [2] (setting [10]) is 75 to 84%. The pest or weed control at 140 g/ha in series [2] (setting [11]) was 0 to 29%. The pest or weed control at 140 g/ha in series [2] (setting [12]) was 0 to 29%. Moreover, the pest or weed control at 140 g/ha in series [2] (setting [13]) is 0 to 29%. In series [2] (setting [14]), the pest or weed control at 140 g/ha was 30 to 44%.
The compound `Nc1c(F)c(-c2cccc3ccsc23)nc(C(=O)O)c1Cl` [Compound 3.25] gave a melting point of 183 to 185 °C. Moreover, the pest or weed control at 140 g/ha in series [1] (setting [3]) lay within 0 to 29%. Moreover, the pest or weed control at 140 g/ha in series [1] (setting [4]) was 95 to 100%. Moreover, the pest or weed control at 140 g/ha in series [1] (setting [5]) lay within 75 to 84%. Further, the pest or weed control at 140 g/ha in series [1] (setting [6]) was in the range of 95 to 100%. In addition, in series [1] (setting [7]), the pest or weed control at 140 g/ha lay within 0 to 29%. Also, the pest or weed control at 140 g/ha in series [1] (setting [8]) lay within 45 to 59%. The pest or weed control at 140 g/ha in series [2] (Cyperus esculentus, yellow nutsedge (Cyperus esculentus), 14 days after application, read-out: Visual Growth Reduction (%) 14 Days After Application CYPES) lay in the range of 0 to 29%. In addition, in series [2] (Echinochloa crus-galli, barnyardgrass (Echinochloa crus-galli), 14 days after application, read-out: Visual Growth Reduction (%) 14 Days After Application ECHCG), the pest or weed control at 140 g/ha is 0 to 29%. In series [2] (Oryza sativa, rice (Oryza sativa), 14 days after application, read-out: Visual Growth Reduction (%) 14 Days After Application ORYSA), the pest or weed control at 140 g/ha lay within 0 to 29%. Further, the pest or weed control at 140 g/ha in series [2] (Setaria faberi, giant foxtail (Setaria faberi), 14 days after application, read-out: Visual Growth Reduction (%) 14 Days After Application SETFA) was in the range of 0 to 29%. For the same compound, the pest or weed control at 140 g/ha in series [2] (Triticum aestivum, wheat, spring (Triticum aestivum), 14 days after application, read-out: Visual Growth Reduction (%) 14 Days After Application TRZAS) was in the range of 0 to 29%. Also, the pest or weed control at 140 g/ha in series [2] (Zea mays, maize, corn (Zea mays), 14 days after application, read-out: Visual Growth Reduction (%) 14 Days After Application ZEAMX) was in the range of 0 to 29%.
